The record followed here is patent publication US20080234266A1, “Squaric Acid Derivatives II” (priority 2005, published 2008).

This assay has as its target T1, CHK1 kinase (Homo sapiens, UniProt O14757).
T1 construct: glutathione S-transferase (GST); made in house; host or cells: Sf21 insect cells (S. frugiperda), baculovirus
T1 sequence (O14757 1-476): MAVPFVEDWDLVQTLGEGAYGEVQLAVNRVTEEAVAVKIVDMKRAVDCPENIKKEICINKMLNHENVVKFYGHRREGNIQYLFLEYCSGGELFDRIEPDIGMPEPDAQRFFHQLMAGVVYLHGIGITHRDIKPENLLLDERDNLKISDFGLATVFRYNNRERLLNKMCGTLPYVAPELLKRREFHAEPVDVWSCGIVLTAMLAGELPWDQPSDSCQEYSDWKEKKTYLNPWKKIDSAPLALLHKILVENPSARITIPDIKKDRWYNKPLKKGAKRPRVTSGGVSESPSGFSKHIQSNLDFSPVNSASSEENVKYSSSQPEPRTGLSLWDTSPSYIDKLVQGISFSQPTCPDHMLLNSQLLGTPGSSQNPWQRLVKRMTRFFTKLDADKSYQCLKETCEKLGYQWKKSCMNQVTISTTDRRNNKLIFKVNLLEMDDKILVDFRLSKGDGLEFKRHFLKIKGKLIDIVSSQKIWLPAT
Description: Flashplate method (CHK1), measurement of the CHK1 kinase activity. Particulars: class symbols; 'Affinity to receptors'. It is filed as biochemical. In short, it runs like this:
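GST-tagged CHK1 expressed in Sf21 insect cells, incubated at 30 °C with biotinylated CHKtide (0.15 μg per well) and γ33P-ATP in pH 7.5 buffer (EGTA, Mg acetate, mercaptoethanol, 0.1% BSA). Stopped with EDTA, captured on streptavidin Flashplates and counted by scintillation. IC50 set against uninhibited reaction and 0.1 μM staurosporine as zero.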

Usually IC50 stands for the concentration that inhibits the measured activity by half. A low value points to greater potency in that assay. Consider “3-[(R)-1-(3-methoxyphenyl)ethylamino]-4-(8-methylimidazo[1,2-a]pyridin-6-ylamino)-cyclobut-3-ene-1,2-dione [Compound A59]”, for which the IC50 is greater than 1000 nM.
In turn, `O=c1c(NCc2cc(F)c(F)c(O)c2F)c(Nc2ccc3[nH]cnc3c2)c1=O` [Compound A78, 3-(1H-benzimidazol-5-ylamino)-4-(2,4,5-trifluoro-3-hydroxybenzylamino)cyclobut-3-ene-1,2-dione] showed an IC50 greater than 1000 nM.
For `COC(=O)Nc1cccc(CNc2c(Nc3ccc4[nH]cnc4c3)c(=O)c2=O)c1` [Compound A128, 3-(1H-benzimidazol-5-ylamino)-4-(3-methoxycarbonylaminobenzylamino)-cyclobut-3-ene-1,2-dione], the IC50 was greater than 1000 nM.
`CNS(=O)(=O)c1ccccc1CNc1c(Nc2ccc3[nH]cnc3c2)c(=O)c1=O` [Compound A154, 3-(1H-benzimidazol-5-ylamino)-4-[2-(N-methylaminosulfonyl)benzylamino]cyclobut-3-ene-1,2-dione] came in with an IC50 greater than 1000 nM.
Consider `CS(=O)(=O)Nc1cccc(CNc2c(Nc3ccc4[nH]cnc4c3)c(=O)c2=O)c1` [Compound A77, 3-(1H-benzimidazol-5-ylamino)-4-(3-methyl-sulfonylaminobenzylamino)cyclobut-3-ene-1,2-dione], for which the IC50 was greater than 1000 nM.
In turn, `CC[C@@H](Nc1c(Nc2ccc3[nH]cnc3c2)c(=O)c1=O)c1cccc(OC)c1` [Compound A114, 3-(1H-benzimidazol-5-ylamino)-4-[(R)-1-(3-methoxyphenyl)propylamino]cyclobut-3-ene-1,2-dione] displayed an IC50 greater than 1000 nM.
As for `O=c1c(NCc2cccc(O)c2)c(Nc2ccc3cc[nH]c3c2)c1=O` [Compound A28, 3-(1H-indol-6-ylamino)-4-(3-hydroxybenzyl-amino)cyclobut-3-ene-1,2-dione], the figure is greater than 1000 nM.
To `CCOc1ccc(O)cc1CNc1c(Nc2ccc3[nH]cnc3c2)c(=O)c1=O` [Compound A93, 3-(1H-benzimidazol-5-ylamino)-4-(2-ethoxy-5-hydroxybenzylamino)cyclobut-3-ene-1,2-dione] belongs greater than 1000 nM; to `O=CNc1cccc(CNc2c(Nc3ccc4[nH]cnc4c3)c(=O)c2=O)c1` [Compound A134, 3-(1H-benzimidazol-5-ylamino)-4-(3-formyl-aminobenzylamino)cyclobut-3-ene-1,2-dione], greater than 1000 nM; to `CC(Nc1c(Nc2ccc3[nH]ncc3c2)c(=O)c1=O)c1cccc(NC(N)=O)c1` (racemic) [Compound A145, 3-(1H-indazol-5-ylamino)-4-[(R,S)-1-(3-ureidophenyl)ethylamino]cyclobut-3-ene-1,2-dione], greater than 1000 nM.
As for `CCn1c2ccccc2c2cc(Nc3c(NCc4cccc(O)c4)c(=O)c3=O)ccc21` [Compound A47, 3-(9-ethyl-9H-carbazol-3-ylamino)-4-(3-hydroxybenzylamino)cyclobut-3-ene-1,2-dione], the figure is greater than 1000 nM.
With `CC[C@H](Nc1c(Nc2ccc3[nH]cnc3c2)c(=O)c1=O)c1cccc(OC)c1` [Compound A115, 3-(1H-benzimidazol-5-ylamino)-4-[(S)-1-(3-methoxyphenyl)propylamino]cyclobut-3-ene-1,2-dione], the IC50 was greater than 1000 nM.
For `COc1cccc([C@@H](C)Nc2c(Nc3ccc4[nH]cnc4c3)c(=O)c2=O)c1` [Compound A2, 3-(1H-benzimidazol-5-ylamino)-4-[(R)-1-(3-methoxyphenyl)ethylamino]cyclobut-3-ene-1,2-dione], the IC50 is less than 1000 nM.
As for `CN(C)c1ccc(CNc2c(Nc3ccc4[nH]cnc4c3)c(=O)c2=O)cc1` [Compound A147, 3-(1H-benzimidazol-5-ylamino)-4-(4-dimethylaminobenzylamino)cyclobut-3-ene-1,2-dione], the figure is greater than 1000 nM; as for `CNS(=O)(=O)c1ccc(CNc2c(Nc3ccc4[nH]cnc4c3)c(=O)c2=O)cc1` [Compound A152, 3-(1H-benzimidazol-5-ylamino)-4-[4-(N-methylaminosulfonyl)benzylamino]cyclobut-3-ene-1,2-dione], greater than 1000 nM.
